The results in this text go back to ChEMBL document CHEMBL1151967, “Cytotoxic biscembranes from the soft coral Sarcophyton glaucum” (J Nat Prod, 2009).

The term IC50 denotes the concentration that inhibits the measured activity by half.

Each structure is given as a SMILES string.

For this assay, the system named is HL-60. Nature of the assay: Cytotoxicity against human HL60 cells. The assay is classed as functional, cell-based.
`COC(=O)[C@]12CC(=O)[C@H](C(C)C)CC(=O)/C(C)=C/CC/C(C)=C\C(=O)[C@H]1CC(C)=C1C[C@H](O)[C@](C)(O)[C@H]3CC[C@@](C)(O)[C@H](CC/C(C)=C/[C@@H]12)O3` [BISGLAUCUMLIDE E]: the IC50 is 41 µM. The figure for `COC(=O)[C@]12CC(=O)[C@H](C(C)C)CC(=O)/C(C)=C\CC/C(C)=C/C(=O)[C@H]1CC(C)=C1C[C@H](OC(C)=O)[C@](C)(O)[C@H]3CC[C@@](C)(O)[C@H](CC/C(C)=C/[C@@H]12)O3` [BISGLAUCUMLIDE F] is 13.3 µM; for `COC(=O)[C@]12CC(=O)[C@H](C(C)C)CC(=O)/C(C)=C/CC/C(C)=C/C(=O)[C@H]1CC(C)=C1C[C@H](O)[C@](C)(O)[C@H]3CC[C@](C)(O3)[C@@H](O)CC/C(C)=C/[C@@H]12` [BISGLAUCUMLIDE G] it is 58 µM; for `COC(=O)[C@]12CC(=O)[C@H](C(C)C)CC(=O)/C(C)=C/CC/C(C)=C\C(=O)[C@H]1CC(C)=C1C[C@H](O)[C@](C)(O)[C@H]3CC[C@@](C)(O3)[C@@H](O)CC/C(C)=C/[C@@H]12` [BISGLAUCUMLIDE H] it is 47.8 µM. With `COC(=O)[C@]12CC(=O)/C=C(/C)CC/C=C(\C)C(=O)C[C@@H](C(C)C)C(=O)[C@H]1CC(C)=C1C[C@H](O)[C@](C)(O)[C@H]3CC[C@@](C)(O)[C@H](CC/C(C)=C/[C@@H]12)O3` [BISGLAUCUMLIDE I] the figure was 44.1 µM; with `COC(=O)[C@]12CC(=O)/C=C(\C)CC/C=C(\C)C(=O)C[C@@H](C(C)C)C(=O)[C@H]1CC(C)=C1C[C@H](OC(C)=O)[C@](C)(O)[C@H]3CC[C@@](C)(O)[C@H](CC/C(C)=C/[C@@H]12)O3` [BISGLAUCUMLIDE K], 29.8 µM.
